Laboratory results taken from US20080058339A1, “New compounds” (Biovitrum, priority 2006, published 2008).

Target: T1, human GPR119 receptor (Homo sapiens, UniProt Q8TDV5)
T1 construct: expressed in transfected cells
T1 sequence (Q8TDV5 1-335): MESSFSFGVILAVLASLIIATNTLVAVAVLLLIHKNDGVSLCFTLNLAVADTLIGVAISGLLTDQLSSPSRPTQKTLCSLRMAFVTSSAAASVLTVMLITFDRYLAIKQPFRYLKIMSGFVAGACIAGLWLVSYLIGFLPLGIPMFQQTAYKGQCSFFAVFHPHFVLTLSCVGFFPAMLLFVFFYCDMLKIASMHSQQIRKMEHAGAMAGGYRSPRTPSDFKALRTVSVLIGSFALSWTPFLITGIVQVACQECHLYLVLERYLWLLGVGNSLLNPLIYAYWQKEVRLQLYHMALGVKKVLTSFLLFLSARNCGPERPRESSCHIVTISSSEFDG
Test: Human GPR119 activity assay (cAMP HTRF in HEK293-hGPR119 cells)
Assay type: cell-based
Details: cAMP stimulation in HEK293 cells stably expressing human GPR119, 20 min incubation, read-out: Agonist potency at the human GPR119, EC50
Description: Human GPR119 Activity Assay
Agonists to the human GPR119 receptor were characterized by measuring human GPR119 receptor-mediated stimulation of cyclic AMP (cAMP) in HEK 293 cells expressing the human GPR119 receptor.
Briefly, cAMP content was determined using a cAMP kit based on HTRF technology (Homogeneous Time-Resolved Fluorescence, Cisbio Cat. no. 62AM2PEC). HEK293 cells stably expressing the human GPR119 receptor (HEK293-hGPR119 cells) were cultured in DMEM (Gibco #31966-021) supplemented with 10% Bovine Calf Serum (Hyclone #SH30072.03), and, 500 μg/mL Hygromycin B (Roche Diagnostics 843555). At 80% confluency, cells were detached using Trypsine and aliquoted at a density of 5×10^6 cells/mL in freezing medium (DMEM (Gibco # 31966-021), 20% BCS (Hyclone #SH30072.03), 10% DMSO (Sigma #D2650) and stored at −135° C. On the experimental day, HEK293-hGPR119 cells were thawn and diluted to 0.4×10^6 cells/mL in assay buffer (1×HBSS (Gibco Cat. no. 14025-049), 20 mM Hepes (Gibco Cat. no. 15630-056), 0.1% BSA, pH 7.4) and incubated with test substances for 20 min at room temperature. After addition of HTRF reagents diluted in lysis buffer, the 96- or 384-well plates were incubated 1 hour, followed by measuring the fluorescence ratio at 665 nm/620 nm. […]

| Compound | EC50 |
| --- | --- |
| CC(C)(C)OC(=O)N1CCC(COc2ccc(-c3ccc(S(C)(=O)=O)cc3)nn2)CC1 [Example A1, tert-Butyl 4-[({6-[4-(methylsulfonyl)phenyl]pyridazin-3-yl}oxy)methyl]piperidine-1-carboxylate] | 46 nM |
| CCN(Cc1ccc(-c2ccc(S(C)(=O)=O)cc2)nn1)C1CCN(C(=O)OC(C)(C)C)CC1 [Example A4, tert-Butyl 4-[ethyl({6-[4-(methylsulfonyl)phenyl]pyridazin-3-yl}methyl)amino]-piperidine-1-carboxylate] | 83 nM |
